Data published in PMC12329534, “Sal is a proteobacterial bile acid aldolase that repurposes key thiolase catalytic residues for retroaldol cleavage of C5 steroid side chains” (The Journal of Biological Chemistry, 2025).

Legend:
[1] = biological target: T1, 17-β-hydroxysteroid dehydrogenase (Hsd4A) (Rhodococcus jostii, UniProt Q0S7K5); assay: LC-MS/MS of product; NADH formation at […] nm; type: biochemical; settings: 1 mM NAD+; substrate made in situ from cholyl-enoyl-CoA by CtShy–CtSal; 100 mM HEPES pH 7.5, 25 °C or 50 mM ammonium acetate pH 7.4
T1 construct: isolated enzyme; construct not described in main text
T1 sequence (Q0S7K5 1-305): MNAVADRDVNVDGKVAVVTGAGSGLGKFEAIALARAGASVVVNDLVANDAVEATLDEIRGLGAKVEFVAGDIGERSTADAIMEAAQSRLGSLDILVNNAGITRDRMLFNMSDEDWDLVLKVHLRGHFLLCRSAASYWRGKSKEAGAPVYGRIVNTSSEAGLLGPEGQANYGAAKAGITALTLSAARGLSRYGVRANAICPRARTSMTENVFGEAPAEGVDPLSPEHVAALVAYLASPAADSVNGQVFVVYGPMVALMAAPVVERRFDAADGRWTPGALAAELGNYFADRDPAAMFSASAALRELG

[2] = biological target: T2, CtShy–CtSal complex (CtSal steroid aldolase activity) (Comamonas testosteroni, UniProt B7X4S8); assay: CtSad-coupled NADH formation at […] nm; type: biochemical; settings: apparent; 1 mM NAD+ and 7 nM CtSad for coupling, 100 mM HEPES pH 7.5, 25 °C
T2 construct: gene CtesDRAFT_PD3654; full-length CtShy–CtSal complex co-expressed in E. coli BL21 LOBSTR, His-tag purified; heterotetramer, 160 kDa by SEC (CtShy 35 kDa, CtSal 46 kDa); with Steroid hydratase Shy (DUF35/OB-fold and MaoC domain-containing protein)
T2 sequence (B7X4S8 1-404): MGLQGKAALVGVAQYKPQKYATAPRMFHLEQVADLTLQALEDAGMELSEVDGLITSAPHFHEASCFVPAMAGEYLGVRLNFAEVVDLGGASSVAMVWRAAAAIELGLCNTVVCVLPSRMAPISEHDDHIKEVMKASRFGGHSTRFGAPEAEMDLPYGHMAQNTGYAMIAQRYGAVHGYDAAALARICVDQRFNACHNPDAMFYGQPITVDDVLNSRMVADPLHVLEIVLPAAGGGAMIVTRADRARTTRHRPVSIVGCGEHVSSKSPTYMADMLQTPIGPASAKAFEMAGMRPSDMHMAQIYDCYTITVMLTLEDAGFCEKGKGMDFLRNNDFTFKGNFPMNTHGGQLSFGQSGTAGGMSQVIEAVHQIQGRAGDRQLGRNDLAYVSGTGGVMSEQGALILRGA
T2 sequence (B7X4S7 1-312 partner): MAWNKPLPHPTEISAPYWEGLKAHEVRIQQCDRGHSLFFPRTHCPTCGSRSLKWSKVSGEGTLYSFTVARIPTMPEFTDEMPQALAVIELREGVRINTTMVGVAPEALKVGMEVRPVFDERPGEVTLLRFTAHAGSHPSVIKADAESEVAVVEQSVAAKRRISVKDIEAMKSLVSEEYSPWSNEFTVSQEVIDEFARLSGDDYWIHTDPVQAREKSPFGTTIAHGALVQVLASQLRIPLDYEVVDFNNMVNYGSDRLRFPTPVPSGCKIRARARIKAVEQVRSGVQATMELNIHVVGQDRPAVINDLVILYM

[3] = biological target: T3, CtShy–CtSal complex (CtShy steroid hydratase activity) (Comamonas testosteroni, UniProt B7X4S7); assay: LC-MS/MS of products; Hsd4A-coupled NADH end point; type: biochemical; settings: 50 mM ammonium acetate pH 7.4 (LC-MS) or 100 mM HEPES pH 7.5, 25 °C; NAD+ and excess Hsd4A
T3 construct: gene CtesDRAFT_PD3653; full-length CtShy–CtSal complex from E. coli BL21 LOBSTR, His-tag purified; MaoC domain of CtShy is the hydratase domain; with Steroid aldolase Sal (thiolase-like protein)
T3 sequence (B7X4S7 1-312): T2 sequence (B7X4S7 1-312 partner)

[4] = tested on: T4, C[C@H](C(O)CC(=O)SCCNC(=O)CCNC(=O)[C@H](O)C(C)(C)COP(=O)(O)OP(=O)(O)OC[C@H]1O[C@@H](n2cnc3c(N)ncnc32)[C@H](O)[C@@H]1OP(=O)(O)O)[C@H]1CC[C@H]2[C@@H]3[C@H](O)C[C@@H]4C[C@H](O)CC[C@]4(C)[C@H]3C[C@H](O)[C@]12C; assay: purified protein; type: biochemical, Comamonas testosteroni; settings: apparent, 1 mM NAD+ and 7 nM CtSad for coupling, 100 mM HEPES pH 7.5, 25 °C
T4 construct: full-length CtShy–CtSal complex co-expressed in E. coli BL21 LOBSTR, His-tag purified; heterotetramer, 160 kDa by SEC (CtShy 35 kDa, CtSal 46 kDa); with Steroid hydratase Shy (DUF35/OB-fold and MaoC domain-containing protein)

C[C@H](C(O)CC(=O)SCCNC(=O)CCNC(=O)[C@H](O)C(C)(C)COP(=O)(O)OP(=O)(O)OC[C@H]1O[C@@H](n2cnc3c(N)ncnc32)[C@H](O)[C@@H]1OP(=O)(O)O)[C@H]1CC[C@H]2[C@@H]3[C@H](O)C[C@@H]4C[C@H](O)CC[C@]4(C)[C@H]3C[C@H](O)[C@]12C (stereo partly drawn) [Cholyl-22-OH-CoA]
LC-MS/MS of product; NADH formation at 340 nm [1]: Hsd4A effectively sequestered the CtShy product to form cholyl-22-oxo-CoA | Km [2]: 8.12 ± 0.477 µM

C[C@H](/C=C/C(=O)SCCNC(=O)CCNC(=O)[C@H](O)C(C)(C)COP(=O)(O)OP(=O)(O)OC[C@H]1O[C@@H](n2cnc3c(N)ncnc32)[C@H](O)[C@@H]1OP(=O)(O)O)[C@H]1CC[C@H]2[C@@H]3[C@H](O)C[C@@H]4C[C@H](O)CC[C@]4(C)[C@H]3C[C@H](O)[C@]12C [cholyl-enoyl-CoA]
LC-MS/MS of products; Hsd4A-coupled NADH end point [3]: Hsd4A effectively sequestered the CtShy product to form cholyl-22-oxo-CoA

CtShy–CtSal complex (CtSal steroid aldolase activity) (Comamonas testosteroni KF-1; R216A)
Km [4]: 41.4 ± 1.29 µM | kcat [4]: 11.6 ± 0.15 s⁻¹ | kcat/Km [4]: 281000 ± 876 M⁻¹ s⁻¹
